From article PMC12371494, “Discovery of YTHDF2 Ligands by Fragment-Based Design” (ACS Bio & Med Chem Au, 2025)
“And” between values parts separate entries of the source, which are not always exact repeats. Equal entries are not always repeated. Where two headings read alike, the source gives them in different places.

Key:
GST-YTHDF2 [1] = target: T1, GST-YTHDF2 (Homo sapiens, UniProt Q9Y5A9); experiment: HTRF-based binding assay, competition with m6A-oligoRNA, DF2; details: for Single-dose residual signal at 100 µM, DF2: HTRF, 100 µM compound, normalized; for IC50: dose-response, competitor m6A-oligoRNA, read-out: DF2 IC50 (HTRF assay); for LE (ligand efficiency, DF2): LE = -RT ln IC50/HAC from HTRF IC50
T1 construct: made in house
T1 sequence (Q9Y5A9 1-579): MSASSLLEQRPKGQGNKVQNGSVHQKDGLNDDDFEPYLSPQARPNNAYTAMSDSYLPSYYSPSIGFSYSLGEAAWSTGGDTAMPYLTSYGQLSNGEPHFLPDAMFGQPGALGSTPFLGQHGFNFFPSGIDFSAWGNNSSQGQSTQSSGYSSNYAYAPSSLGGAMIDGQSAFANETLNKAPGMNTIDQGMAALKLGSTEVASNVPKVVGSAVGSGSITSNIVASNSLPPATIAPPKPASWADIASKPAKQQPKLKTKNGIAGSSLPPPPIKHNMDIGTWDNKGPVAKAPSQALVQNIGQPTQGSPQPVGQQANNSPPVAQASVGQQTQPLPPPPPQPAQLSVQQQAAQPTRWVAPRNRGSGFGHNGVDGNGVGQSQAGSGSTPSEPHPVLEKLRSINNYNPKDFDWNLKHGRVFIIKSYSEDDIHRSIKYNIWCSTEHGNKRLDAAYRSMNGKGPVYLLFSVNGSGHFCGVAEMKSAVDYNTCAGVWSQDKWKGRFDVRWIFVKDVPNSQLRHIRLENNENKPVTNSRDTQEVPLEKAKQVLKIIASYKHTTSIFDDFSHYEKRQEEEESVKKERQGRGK

GST-YTHDF1 = target: T2, GST-YTHDF1 (Homo sapiens, UniProt Q9BYJ9); experiment: HTRF-based binding assay, DF1; details: HTRF, 100 µM compound, normalized
T2 construct: made in house
T2 sequence (Q9BYJ9 1-559): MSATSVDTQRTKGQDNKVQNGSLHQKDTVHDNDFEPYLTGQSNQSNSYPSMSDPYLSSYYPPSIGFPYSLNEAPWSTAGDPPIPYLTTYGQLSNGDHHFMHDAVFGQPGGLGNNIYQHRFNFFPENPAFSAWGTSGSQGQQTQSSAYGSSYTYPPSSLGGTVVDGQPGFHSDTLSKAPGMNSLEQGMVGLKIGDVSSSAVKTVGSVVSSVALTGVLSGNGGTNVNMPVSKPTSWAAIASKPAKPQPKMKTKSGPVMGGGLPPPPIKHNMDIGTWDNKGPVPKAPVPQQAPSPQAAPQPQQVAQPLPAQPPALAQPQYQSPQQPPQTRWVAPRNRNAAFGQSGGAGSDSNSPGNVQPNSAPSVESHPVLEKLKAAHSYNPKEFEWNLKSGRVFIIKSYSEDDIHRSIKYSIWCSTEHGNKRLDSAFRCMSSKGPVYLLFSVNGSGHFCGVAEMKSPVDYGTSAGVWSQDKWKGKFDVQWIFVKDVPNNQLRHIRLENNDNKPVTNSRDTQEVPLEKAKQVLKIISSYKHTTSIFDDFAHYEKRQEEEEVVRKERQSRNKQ
Protocol: (§1) The HTRF-based assay was employed to evaluate the selectivity of the series against other DF proteins.
(§2) A dose–response experiment on DF1 and DF3 was conducted for compounds 17, 18, 23, and 27 (Figure S5). Compounds 17, 18, and 27 are active on three DF proteins. […] In contrast, compound 23 is selective for DF2, with residual signals (at the highest employed concentration of 62.5 μM) of 51 and 87% for DF1 and DF3, respectively.
(§3) GST-YTHDC1, GST-YTHDF1, GST-YTHDF2, and GST-YTHDF3 were purified as previously reported. The HTRF assay was assembled as detailed in ref with the only difference being that the starting concentration of the dose–response experiments used for the IC50 determination was variated dependently from the tested compound. The same protocol was applied to the four proteins. The competitive inhibition data of GST-YTHDF1 (single dose experiment at 100 μM compound concentration and dose–response curves), GST-YTHDF3 (single dose experiment at 100 μM compound concentration and dose–response curves), and GST-YTHDF2 (single dose experiment at 100 μM compound concentration) were normalized as described in ref to mitigate interference. The signal was measured as described in ref .

GST-YTHDF3 = target: T3, GST-YTHDF3 (Homo sapiens, UniProt Q7Z739); experiment: HTRF-based binding assay, DF3; details: HTRF, 100 µM compound, normalized
T3 construct: made in house
T3 sequence (Q7Z739 1-585): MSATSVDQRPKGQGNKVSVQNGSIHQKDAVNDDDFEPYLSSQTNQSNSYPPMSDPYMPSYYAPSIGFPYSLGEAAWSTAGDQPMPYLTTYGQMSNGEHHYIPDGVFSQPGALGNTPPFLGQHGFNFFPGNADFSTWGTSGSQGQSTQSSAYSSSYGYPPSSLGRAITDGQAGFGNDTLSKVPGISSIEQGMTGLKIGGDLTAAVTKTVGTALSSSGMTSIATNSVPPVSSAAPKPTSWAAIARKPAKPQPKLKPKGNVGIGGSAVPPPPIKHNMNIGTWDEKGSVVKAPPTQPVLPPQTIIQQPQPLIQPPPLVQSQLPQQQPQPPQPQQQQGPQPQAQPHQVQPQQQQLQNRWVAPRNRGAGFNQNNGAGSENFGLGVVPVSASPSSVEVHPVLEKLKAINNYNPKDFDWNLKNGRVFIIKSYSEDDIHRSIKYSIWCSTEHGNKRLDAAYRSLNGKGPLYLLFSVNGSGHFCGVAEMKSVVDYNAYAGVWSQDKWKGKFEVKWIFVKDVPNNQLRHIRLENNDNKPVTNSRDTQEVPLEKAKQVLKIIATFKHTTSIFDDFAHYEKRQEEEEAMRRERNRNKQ
Protocol: as §1, §2, §3

YTHDC2 = target: T4, YTHDC2 (Homo sapiens, UniProt Q9H6S0); experiment: DNA-fluorescence polarization (FP) competition assay, DC2; type: binding; details: for Kd: Cheng-Prusoff from FP IC50, probe Kd 7 nM, two biological replicates
T4 construct: YTH domain of YTHDC2 (residues 1285–1424, cloned into the pGEX-6P-1 vector); made in house; host or cells: Rosetta (DE3) cells (E. coli)
T4 sequence (Q9H6S0 1285-1424): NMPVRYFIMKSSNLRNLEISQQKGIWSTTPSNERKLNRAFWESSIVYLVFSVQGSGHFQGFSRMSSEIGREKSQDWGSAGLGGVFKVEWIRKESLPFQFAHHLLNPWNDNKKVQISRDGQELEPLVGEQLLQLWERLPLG
Protocol: (§4) The binding affinity for DC1 could not be evaluated by HTRF because of interference of the compounds with the assay, which has a smaller assay window when performed with DC1 compared to the DF proteins. Thus, the FP assay was used to evaluate binding to DC1 and DC2.
The N-terminally GST-tagged YTH domain of YTHDC2 (residues 1285–1424, cloned into the pGEX-6P-1 vector) was overexpressed in Rosetta (DE3) cells grown overnight at 20 °C following induction with 0.4 mM isopropyl-β-D-thiogalactopyranoside (IPTG) at an OD600 of 0.8. The cells were harvested and resuspended in a lysis buffer containing 100 mM Tris–HCl (pH 8.0) and 500 mM NaCl. After cell lysis, the lysate was clarified by centrifugation at 48,000g for 1 h, and the soluble proteins were loaded onto a column packed with Glutathione Sepharose 4B (GE Healthcare), then eluted with 20 mM reduced glutathione in lysis buffer. Finally, a size-exclusion chromatography step (HiLoad 16/600 Superdex 200 pg column, GE Healthcare) was performed to further purify the protein in 20 mM Tris–HCl (pH 7.4) and 150 mM NaCl.
(§5) For fluorescence polarization (FP) experiments, a 5′-fluorescein-labeled m^6A-DNA probe (5′-FAM-[…](m6A)-CTAAGCT-3′) was synthesized by Microsynth AG.
(§6) The final concentration of the fluorescein-labeled DNA was kept constant at 3 nM. For YTHDC2 measurements, the protein concentration was set to 25 nM, while for YTHDF2 measurements, it was set to 10 nM, and for YTHDC1, it was set at 15 nM. The compound concentration was serially diluted to obtain the dose–response curve. The competition experiments were conducted in a final volume of 20 μL in a buffer containing 20 mM Tris–HCl (pH 7.4), 150 mM NaCl, and 0.01% bovine serum albumin (BSA), using a 384-well black flat-bottomed microplate (Corning 3575).
(§7) After incubating the mixture for 1 h, the anisotropy values were measured using a Tecan SPARK plate reader with 485/20 nm excitation and 535/25 nm emission polarization filters, suitable for fluorescein, at 25 °C. To obtain the equilibrium dissociation constant (K d), the IC50 values were first derived by fitting a dose–response curve to the data using nonlinear regression analysis in GraphPad Prism. These IC50 values were then converted to K d by using the Cheng–Prusoff equation: Kd=IC50/1+[L]/Kdprobe
(§8) IC50 is the observed value from FP assay, [L] is the probe concentration used, and K d ^probe is the binding affinity of probe for the target.

YTHDF2 = target: T5, YTHDF2 (Homo sapiens, UniProt Q9Y5A9); experiment: DNA-fluorescence polarization (FP) competition assay, DF2; type: binding
T5 sequence (Q9Y5A9 1-579): T1 sequence (Q9Y5A9 1-579)
Protocol: An FP competition assay was used to further validate the binding of the compounds to DF2. The main difference with respect to a previously published FP assay is the use of an oligo-DNA as competitor ligand (see Materials and Methods section). […] These differences might originate from the varying conditions in the two assays, such as the competitor mRNA (5′-biotin-[…](m6A)-CUAAGCU-3′) in HTRF and DNA (5′-FAM-[…](m6A)-CTAAGCT-3′) in FP, the salt concentration (150 mM NaCl and 100 mM KF in HTRF, and 150 mM NaCl in FP), and the pH (7.5 in HTRF and 7.4 in FP). The FP-based assay was also employed to assess the selectivity against DC1 and DC2 (see Selectivity section).
as §5, §6, §7, §8

YTHDC1 = YTHDC1 (Homo sapiens, UniProt Q96MU7); experiment: DNA-fluorescence polarization (FP) competition assay, DC1; type: binding
Protocol: as §4, §5, §6, §7, §8

GST-YTHDF2 [2] = target: T1, GST-YTHDF2; details: HTRF, 1 mM compound; cited from earlier work
[3] = Cheng-Prusoff from FP IC50, probe Kd 5 nM, two biological replicates

Row | Compound | Single-dose residual signal at 100 µM, DF2 (GST-YTHDF2 [1]) | IC50 (GST-YTHDF2 [1]) | Single-dose residual signal at 100 µM, DF1 (GST-YTHDF1) | Single-dose residual signal at 100 µM, DF3 (GST-YTHDF3) | Kd (YTHDC2) | Kd (YTHDF2) | Kd (YTHDC1) | further results
1 | Cc1c(C(C)O)sc2[nH]c(=S)[nH]c(=O)c12 (racemic) [Compound S79] | 9% | 27 µM | 31% | 30% | > 1000 µM |  |  | 
2 | COc1ccc(-c2cc3c(=O)[nH]c(=S)[nH]c3s2)cc1 [Compound 28] |  | 22 µM |  |  | 9.1 µM | 1.9 µM | 9.4 µM | LE (ligand efficiency, DF2) (GST-YTHDF2 [1]): 0.34 kcal/(mol HAC)
3 | CCOC(=O)c1ccc(-c2cc3c(=O)[nH]c(=S)[nH]c3s2)cc1 [Compound 29] |  | 21 µM |  |  | 8.4 µM | 3.1 µM | 5 µM | LE (ligand efficiency, DF2) (GST-YTHDF2 [1]): 0.29 kcal/(mol HAC); Selectivity DF2 over DC2 (Kd ratio DC2/DF2) (YTHDC2; FP Kd values): 2–4 fold; Selectivity DF2 over DC1 (Kd ratio DC1/DF2) (YTHDC1; FP Kd values): 2–4 fold
4 | O=C(O)c1ccc(-c2cc3c(=O)[nH]c(=S)[nH]c3s2)cc1 [Compound 30] |  |  |  |  | 5 µM and 4.9 µM | 1.9 µM | 7.5 µM | 
5 | Cc1cc2c(=O)[nH]c(=S)[nH]c2s1 [Compound S78] | 8% | 38 µM | 17% | 22% | > 1000 µM |  |  | 
6 | Cc1c(C(=O)O)sc2[nH]c(=S)[nH]c(=O)c12 [Compound S80] | 9% | 32 µM | 15% | 29% |  |  |  | 
7 | Cc1c(C(=O)NCCCCO)sc2[nH]c(=S)[nH]c(=O)c12 [Compound S83] | 9% | 25 µM | 17% | 40% | > 1000 µM |  |  | 
8 | O=C(O)c1ccc(Cc2cc3c(=O)[nH]c(=S)[nH]c3s2)cc1 [Compound S87] |  | 29 µM |  |  | 100 µM |  |  | Kd (YTHDF2; [3]): 18 µM
9 | Cc1csc2[nH]c(=S)[nH]c(=O)c12 [Compound S88] |  | 28 µM |  |  | 120 µM |  |  | Kd (YTHDF2; [3]): 8.1 µM
10 | CNc1ncnc2[nH]cnc12 [m^6-Adenine] |  |  |  |  |  |  |  | Residual signal at 1 mM concentration (GST-YTHDF2 [2]): 75 (Ref. ^13) %
